Key:
[1] = tested on: TNF production by LPS stimulation in primary human monocytes; settings: 200 ng/ml LPS
[2] = tested on: NF-κB activation in U2OS cells; experiment: NF-κB dual luciferase reporter assay in U2OS cells overexpressing HA-NOD2; settings: 100 nM, 24 hr
[3] = tested on: IκBα degradation in THP-1 cells; experiment: Immunoblot of IκBα in L18-MDP-stimulated THP-1 cells; format: cell-based, human; settings: 100 nM pre-treatment, 200 ng/ml L18-MDP
Procedure: Figure 5 Inhibition of NOD2-Dependent Ubiquitination and Signaling (A–C) THP-1 cells were pre-treated with kinase inhibitors or DMSO for 30 min and stimulated with 200 ng/ml L18-MDP (A, B) or TNF (C) as indicated. At the indicated time points, cells were lysed and ubiquitinated proteins were isolated using TUBE reagent. The isolated ubiquitinated proteins and input material were analyzed by immunoblotting. See also Figure S6.
The ubiquitin conjugates were purified using GST-Tandem Ubiquitin Binding Entities (TUBE; [Fiil et al., 2013]). In brief, treated THP-1 cells (6–10 × 10^6) were washed with PBS and lysed in 400 μl of ice-cold lysis buffer containing TUBE on ice for 30 min. Cleared lysates were incubated with Glutathione Sepharose 4B resin (Amersham) with agitation at 4°C overnight. The beads were washed four times with PBS-Tween (0.1%) and the bound proteins were released by heating the beads in reducing SDS sample buffer. The samples were resolved on pre-cast gradient gels (NuPage; Life Technologies) in MOPS running buffer and subjected to immunoblotting.

[4] = tested on: phospho-Ser176-RIPK2 (p-RIPK2) in NOD2-expressing HEK293 cells; experiment: Western blot of phospho-Ser176-RIPK2 in HEKBlue cells after L18-MDP
RIPK3 = RIPK3 (Homo sapiens, UniProt Q9Y572); set-up: method as in Najjar et al., 2015; settings: ref Najjar et al., 2015; cited from earlier work
RIPK1 = target: T1, RIPK1 (Homo sapiens, UniProt Q13546); set-up: method as in Najjar et al., 2015; settings: ref Najjar et al., 2015; cited from earlier work
T1 sequence (Q13546 1-671): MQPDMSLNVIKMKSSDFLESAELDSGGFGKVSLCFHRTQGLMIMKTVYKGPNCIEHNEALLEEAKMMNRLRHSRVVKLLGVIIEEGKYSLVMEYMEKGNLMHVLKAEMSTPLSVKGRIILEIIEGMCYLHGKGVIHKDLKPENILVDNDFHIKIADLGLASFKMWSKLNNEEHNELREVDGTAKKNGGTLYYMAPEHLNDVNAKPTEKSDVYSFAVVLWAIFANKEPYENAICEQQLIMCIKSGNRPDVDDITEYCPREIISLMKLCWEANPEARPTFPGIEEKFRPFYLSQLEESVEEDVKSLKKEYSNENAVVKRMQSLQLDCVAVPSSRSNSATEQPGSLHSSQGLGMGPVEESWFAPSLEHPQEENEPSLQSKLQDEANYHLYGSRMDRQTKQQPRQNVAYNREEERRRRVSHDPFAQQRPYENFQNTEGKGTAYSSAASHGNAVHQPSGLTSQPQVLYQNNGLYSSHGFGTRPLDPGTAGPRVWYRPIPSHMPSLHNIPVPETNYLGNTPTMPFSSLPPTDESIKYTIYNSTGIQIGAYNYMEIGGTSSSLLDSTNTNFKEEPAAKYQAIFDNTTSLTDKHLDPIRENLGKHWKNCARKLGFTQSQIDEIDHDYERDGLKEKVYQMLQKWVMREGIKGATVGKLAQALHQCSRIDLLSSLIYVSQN

[5] = tested on: NOD2-dependent TNF production in primary human monocytes; experiment: Flow cytometry of intracellular TNF in primary human monocytes, L18-MDP; format: cell-based
Procedure: Experimental conditions are measured in 4–5 healthy donors. […] Gray background indicates range without inhibitors. See also Figure S7.

[6] = tested on: RAW264.7 macrophage cells; experiment: Cell viability and morphology, 24 hours; settings: 100 nM

Sequence of RIPK3 (Q9Y572 whole entry, species assumed): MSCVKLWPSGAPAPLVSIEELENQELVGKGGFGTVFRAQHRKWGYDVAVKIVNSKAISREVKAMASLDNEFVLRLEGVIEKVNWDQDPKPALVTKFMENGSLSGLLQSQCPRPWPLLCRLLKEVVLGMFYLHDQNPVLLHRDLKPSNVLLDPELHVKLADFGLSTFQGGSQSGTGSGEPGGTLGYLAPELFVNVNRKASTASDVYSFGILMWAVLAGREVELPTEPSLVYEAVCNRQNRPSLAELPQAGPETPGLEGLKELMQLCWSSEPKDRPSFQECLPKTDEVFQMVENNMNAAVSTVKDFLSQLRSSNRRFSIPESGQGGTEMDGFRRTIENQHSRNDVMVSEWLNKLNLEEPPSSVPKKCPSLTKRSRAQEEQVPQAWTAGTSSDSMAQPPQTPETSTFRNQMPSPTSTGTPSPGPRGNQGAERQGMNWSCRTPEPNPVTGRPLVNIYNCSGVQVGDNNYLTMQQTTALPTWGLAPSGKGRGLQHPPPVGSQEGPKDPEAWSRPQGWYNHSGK

Cc1ccc(C(=O)Nc2ccc(CN3CCN(C)CC3)c(C(F)(F)F)c2)cc1C#Cc1cnc2cccnn12 [ponatinib, 3-[2-(imidazo[1,2-b]pyridazin-3-yl)ethynyl]-4-methyl-N-{4-[(4-methylpiperazin-1-yl)methyl]-3-(trifluoromethyl)phenyl}benzamide]
concentration attenuating TNF production by LPS stimulation [1]: 1 µM
NF-κB activation [2]: completely disabled
downstream degradation of IκBα [3]: blocked
concentration completely blocking RIPK2 phosphorylation [4]: 10 nM
inhibition of RIPK3 kinase activity in necroptosis (RIPK3): efficient inhibitor
inhibition of RIPK1 kinase activity in necroptosis (RIPK1): efficient inhibitor
concentration completely abrogating NOD2-dependent TNF production [5]: 10 nM
morphology of RAW cells [6]: caused rounding of RAW cells
